Source: patent US8557790B2, “A3 adenoside receptor agonists for the reduction of intraocular pressure” (Can-Fite Biopharma Ltd., priority 2009, dated 2013)
Entries after “also recorded” stand apart in the source; their conditions may differ.

Test system: patients with moderate-to-severe Keratoconjunctivitis Sicca (KCS)
Assay: Phase 2 randomized, double-masked, placebo-controlled clinical study of oral IB-MECA; IOP measured at baseline and week 12
Assay type: in vivo, human
Procedure: A clinical study was conducted in patients with dry eye symptoms. The patients received an oral administration of IB-MECA at a dose of 1 mg or placebo, twice daily.
This study was a Phase 2, randomized, double-masked, placebo-controlled, parallel-group study in adult males and females, aged 18 years and over, with a diagnosis of moderate-to-severe Keratoconjunctivitis Sicca (KCS). Patients were randomized to receive either IB-MECA 1 mg or matching placebo, given orally, twice daily, for 12 weeks. A Screening Period of up to 4 weeks that includes a 2-week run-in period preceded a 12-week treatment period, followed by a 2-week follow-up period.
Some patients received either the IB-MECA capsules or a matching placebo and others received the IB-MECA tablets or a matching placebo.
Eligible patients to be included in the study were adult males or females, aged 18 years and over, with a diagnosis of moderate-to-severe KCS as defined by: • (1) at least 1 of the following ocular symptoms scored at ≧2, where 0=none and 4=very severe/interferes with normal activities: photophobia, blurred vision, foreign body sensation, soreness or pain, itching, burning, dryness; AND • (2) ST (without anesthesia)<7 mm/5 min in either eye; AND • (3) Positive FS, defined as a corneal punctuate fluorescein staining score of ≧1 in either eye, where 0=none and 3=severe. Use of topical ocular treatments was banned during the course of the study other than unreserved artificial tears (REFRESH) up to 8 times/day for the duration of the trial. Also banned was periocular cosmetic application. (c) Patients' Exclusion Criteria
Patients were excluded from the study if they had Sjögren's Syndrome with significant systemic non-exocrine gland involvement, Stevens-Johnson Syndrome, post-burn ocular injury, or chronic ocular disease other than KCS requiring topical treatment. Excluded were also patients being administered topical cyclosporine eye drops or systemic cyclosporine within 3 months prior to the Screening Visit; disease-modifying drugs, including methotrexate and biological agents, whose dose has been changed within 3 months prior to the Screening Visit or was expected to change during the trial; oral corticosteroids>10 mg prednisone, or equivalent, per day; or topical steroids within 2 weeks prior to the Screening Visit and for the duration of the study. […]

[1] = baseline to week 12, 1 mg orally twice daily, N=35

## CNC(=O)[C@H]1O[C@@H](n2cnc3c(NCc4cccc(I)c4)ncnc32)[C@H](O)[C@@H]1O [IB-MECA, N^6-(3-iodobenzyl)-adenosine-5′-N-methyluronamide]
[1]
  IOP % change, Mean: −6.07%
  IOP change, Mean: −1.14
Baseline to week 12, versus 1.95% in the placebo group, p<0.05
  decrease in IOP (% change): 6.07%
End of 12 weeks treatment, 1 mg orally twice daily, N=35
  IOP week 12, Mean: 13.00
Human subjects, oral 1 mg twice daily, tested subjects in general and patients with elevated IOP in particular
  effect on IOP (in words): decreasing IOP; also recorded: lowering of intraocular pressure; also recorded: much more pronounce decrease in IOP than the placebo group
Patients with dry eye symptoms, oral 1 mg twice daily
  effect on dry eye symptoms (in words): amelioration of some of the dry eye symptoms
Prior to first treatment, KCS patients, capsules and tablets pooled, N=35
  IOP at baseline, Mean: 14.14
